Patent publication US10947252B2, “Inhibitors of KEAP1-Nrf2 protein-protein interaction” (Janssen Pharmaceutica NV, priority 2018, dated 2021)

Columns and labels:
[1] = tested on: Glo-Response ARE-luc2P HEK293 cell line; experiment: ARE luciferase reporter cell-based assay; conditions: Homo sapiens, HEK293, 24 h, average of results obtained;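 note: luciferase signal tracks Nrf2 activation of the ARE once compounds disrupt KEAP1-Nrf2 binding, read with One-Glo reagent, DMSO serving as low control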
[2] = target: Kelch domain of human KEAP1 (321-624 aa) (Homo sapiens (Human), UniProt Q14145); experiment: KEAP1 KELCH ThermoFluor binding assay; conditions: KEAP Kelch […], 1,8-ANS, pH 7.0, average of results obtained, read-out: Tf Kd;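 note: Ligand-induced melting temperature shift of E. coli-expressed KEAP1 Kelch protein, Kd estimated from concentration-response curves of ΔTm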
Chain of Kelch domain of human KEAP1 (321-624 aa) (Q14145 321-624): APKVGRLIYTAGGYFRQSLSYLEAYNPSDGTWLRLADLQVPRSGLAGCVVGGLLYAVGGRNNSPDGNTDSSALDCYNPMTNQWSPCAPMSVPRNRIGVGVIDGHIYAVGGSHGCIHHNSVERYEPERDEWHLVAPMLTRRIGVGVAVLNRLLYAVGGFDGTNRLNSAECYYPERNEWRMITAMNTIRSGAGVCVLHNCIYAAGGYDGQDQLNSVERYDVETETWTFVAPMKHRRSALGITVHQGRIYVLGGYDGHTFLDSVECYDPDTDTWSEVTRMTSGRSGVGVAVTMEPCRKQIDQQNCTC

Work on Cc1cc2c(nc1OCCN1CCCC1)OC1(CC1)CN(Cc1cc([C@H](c3ccc4c(nnn4C4CC4)c3C)C(C)(C)C(=O)O)cnc1C)S2(=O)=O (single isomer, unassigned) [Example 628, (*S)-3-(1-Cyclopropyl-4-methyl-1H-benzo[d][1,2,3]triazol-5-yl)-2,2-dimethyl-3-(6-methyl-5-((8′-methyl-1′,1′-dioxido-7′-(2-(pyrrolidine-1-yl)ethoxy)spiro[cyclopropane-1,4′-pyrido[2,3-b][1,4,5]]oxathiazepin]-2′(3′H)-yl)methyl)pyridine-3-yl)propanoic Acid] yielded an EC50 [1] of over 20000 nM and a Kd [2] of 15400 nM.
Cc1cnc2c(c1)S(=O)(=O)N(Cc1nc([C@H](c3ccn4c(C(F)(F)F)nnc4c3C)C(C)(C)C(=O)O)ccc1C)CC1(CNC1)O2 (single isomer, unassigned) [Example 629, (*R)-2,2-Dimethyl-3-(8-methyl-3-(trifluoromethyl)-[1,2,4]triazolo[4,3-a]pyridin-7-yl)-3-(5-methyl-6-((8′-methyl-1′,1′-dioxidospiro[azetidine-3,4′-pyrido[2,3-b][1,4,5]oxathiazepin]-2′(3′H)-yl)methyl)pyridin-2-yl)propanoic Acid] gave an EC50 [1] of over 20000 nM and a Kd [2] of 131000 nM.
Cc1cnc2c(c1)S(=O)(=O)N(Cc1nc([C@@H](c3ccn4c(C(F)(F)F)nnc4c3C)C(C)(C)C(=O)O)ccc1C)CC1(CNC1)O2 (single isomer, unassigned) [Example 630, (*S)-2,2-Dimethyl-3-(8-methyl-3-(trifluoromethyl)-[1,2,4]triazolo[4,3-a]pyridin-7-yl)-3-(5-methyl-6-((8′-methyl-1′,1′-dioxidospiro[azetidine-3,4′-pyrido[2,3-b][1,4,5]oxathiazepin]-2′(3′H)-yl)methyl)pyridin-2-yl)propanoic Acid] showed an EC50 [1] of 81.8 nM and a Kd [2] of 3.81 nM.
Cc1cnc2c(c1)S(=O)(=O)N(Cc1nc([C@H](c3ccn4c(C(F)F)nnc4c3C)C(C)(C)C(=O)O)ccc1C)CC1(CNC1)O2 (single isomer, unassigned) [Example 631, (*R)-3-(3-(Difluoromethyl)-8-methyl-[1,2,4]triazolo[4,3-a]pyridin-7-yl)-2,2-dimethyl-3-(5-methyl-6-((8′-methyl-1′,1′-dioxidospiro[azetidine-3,4′-pyrido[2,3-b][1,4,5]oxathiazepin]-2′(3′H)-yl)methyl)pyridin-2-yl)propanoic Acid] gave an EC50 [1] of 76.8 nM and a Kd [2] of 1.08 nM.
Molecule Cc1cnc2c(c1)S(=O)(=O)N(Cc1nc([C@@H](c3ccn4c(C(F)F)nnc4c3C)C(C)(C)C(=O)O)ccc1C)CC1(CNC1)O2 (single isomer, unassigned) [Example 632, (*S)-3-(3-(Difluoromethyl)-8-methyl-[1,2,4]triazolo[4,3-a]pyridin-7-yl)-2,2-dimethyl-3-(5-methyl-6-((8′-methyl-1′,1′-dioxidospiro[azetidine-3,4′-pyrido[2,3-b][1,4,5]oxathiazepin]-2′(3′H)-yl)methyl)pyridin-2-yl)propanoic Acid] has an EC50 [1] of 18100 nM and a Kd [2] of 21200 nM.
Cc1ccc([C@H](c2ccn3c(C(F)(F)F)nnc3c2C)C(C)(C)C(=O)O)nc1CN1CC2(CC2)Oc2nc(OCCN3CCCC3)c(C)cc2S1(=O)=O (single isomer, unassigned) [Example 633, (*R)-2,2-Dimethyl-3-(8-methyl-3-(trifluoromethyl)-[1,2,4]triazolo[4,3-a]pyridin-7-yl)-3-(5-methyl-6-((8′-methyl-1′,1′-dioxido-7′-(2-(pyrrolidin-1-yl)ethoxy)spiro[cyclopropane-1,4′-pyrido[2,3-b][1,4,5]oxathiazepin]-2′(3′H)-yl)methyl)pyridin-2-yl)propanoic Acid] was tested, and the EC50 [1] was 1750 nM and the Kd [2] was 2260 nM.
Molecule Cc1ccc([C@@H](c2ccn3c(C(F)(F)F)nnc3c2C)C(C)(C)C(=O)O)nc1CN1CC2(CC2)Oc2nc(OCCN3CCCC3)c(C)cc2S1(=O)=O (single isomer, unassigned) [Example 634, (*S)-2,2-Dimethyl-3-(8-methyl-3-(trifluoromethyl)-[1,2,4]triazolo[4,3-a]pyridin-7-yl)-3-(5-methyl-6-((8′-methyl-1′,1′-dioxido-7′-(2-(pyrrolidin-1-yl)ethoxy)spiro[cyclopropane-1,4′-pyrido[2,3-b][1,4,5]oxathiazepin]-2′(3′H)-yl)methyl)pyridin-2-yl)propanoic Acid] has an EC50 [1] of 9.53 nM and a Kd [2] of under 1 nM.
Cc1cnc([C@H](c2ccn3c(C(F)F)nnc3c2C)C(C)(C)C(=O)O)cc1CN1CC2(CC2)Oc2nc(OCCN3CCCC3)c(C)cc2S1(=O)=O (single isomer, unassigned) [Example 635, (*R)-3-(3-(Difluoromethyl)-8-methyl-[1,2,4]triazolo[4,3-a]pyridin-7-yl)-2,2-dimethyl-3-(5-methyl-4-((8′-methyl-1′,1′-dioxido-7′-(2-(pyrrolidin-1-yl)ethoxy)spiro[cyclopropane-1,4′-pyrido[2,3-b][1,4,5]oxathiazepin]-2′(3′H)-yl)methyl)pyridin-2-yl)propanoic Acid] gave an EC50 [1] of 3590 nM and a Kd [2] of 1190 nM.
For Cc1cnc([C@@H](c2ccn3c(C(F)F)nnc3c2C)C(C)(C)C(=O)O)cc1CN1CC2(CC2)Oc2nc(OCCN3CCCC3)c(C)cc2S1(=O)=O (single isomer, unassigned) [Example 636, (*S)-3-(3-(Difluoromethyl)-8-methyl-[1,2,4]triazolo[4,3-a]pyridin-7-yl)-2,2-dimethyl-3-(5-methyl-4-((8′-methyl-1′,1′-dioxido-7′-(2-(pyrrolidin-1-yl)ethoxy)spiro[cyclopropane-1,4′-pyrido[2,3-b][1,4,5]oxathiazepin]-2′(3′H)-yl)methyl)pyridin-2-yl)propanoic Acid], the EC50 [1] was 40.2 nM and the Kd [2] was under 1 nM.
In the case of Cc1cnc([C@@H](c2ccn3c(C(F)F)nnc3c2C)C(C)(C)C(=O)O)cc1CN1CC2(CC2)Oc2nc(OCCN3CCCCC3)c(C)cc2S1(=O)=O (single isomer, unassigned) [Example 638, (*S)-3-(3-(Difluoromethyl)-8-methyl-[1,2,4]triazolo[4,3-a]pyridin-7-yl)-2,2-dimethyl-3-(5-methyl-4-((8′-methyl-1′,1′-dioxido-7′-(2-(piperidin-1-yl)ethoxy)spiro[cyclopropane-1,4′-pyrido[2,3-b][1,4,5]oxathiazepin]-2′(3′H)-yl)methyl)pyridin-2-yl)propanoic Acid], the EC50 [1] is reported as 20.1 nM and the Kd [2] is reported as under 1 nM.
With Cc1cnc([C@H](c2ccn3c(C(F)F)nnc3c2C)C(C)(C)C(=O)O)cc1CN1CC2(CCOCC2)Oc2nc(OCCN3CCCC3)c(C)cc2S1(=O)=O (single isomer, unassigned) [Example 639, (*R)-3-(3-(Difluoromethyl)-8-methyl-[1,2,4]triazolo[4,3-a]pyridin-7-yl)-2,2-dimethyl-3-(5-methyl-4-((8′-methyl-1′,1′-dioxido-7′-(2-(pyrrolidin-1-yl)ethoxy)-2,3,5,6-tetrahydrospiro[pyran-4,4′-pyrido[2,3-b][1,4,5]oxathiazepin]-2′(3′H)-yl)methyl)pyridin-2-yl)propanoic Acid] the EC50 [1] was 5170 nM and the Kd [2] was 1820 nM.
Cc1cnc([C@@H](c2ccn3c(C(F)F)nnc3c2C)C(C)(C)C(=O)O)cc1CN1CC2(CCOCC2)Oc2nc(OCCN3CCCC3)c(C)cc2S1(=O)=O (single isomer, unassigned) [Example 640, (*S)-3-(3-(Difluoromethyl)-8-methyl-[1,2,4]triazolo[4,3-a]pyridin-7-yl)-2,2-dimethyl-3-(5-methyl-4-((8′-methyl-1′,1′-dioxido-7′-(2-(pyrrolidin-1-yl)ethoxy)-2,3,5,6-tetrahydrospiro[pyran-4,4′-pyrido[2,3-b][1,4,5]oxathiazepin]-2′(3′H)-yl)methyl)pyridin-2-yl)propanoic Acid] was tested, and the EC50 [1] was 73.9 nM and the Kd [2] was under 1 nM.
Cc1cnc([C@@H](c2ccn3c(C(F)F)nnc3c2C)C(C)(C)C(=O)O)cc1CN1CC2(CCOCC2)Oc2nc(OCCN3CCCCC3)c(C)cc2S1(=O)=O (single isomer, unassigned) [Example 642, (*S)-3-(3-(Difluoromethyl)-8-methyl-[1,2,4]triazolo[4,3-a]pyridin-7-yl)-2,2-dimethyl-3-(5-methyl-4-((8′-methyl-1′,1′-dioxido-7′-(2-(piperidin-1-yl)ethoxy)-2,3,5,6-tetrahydrospiro[pyran-4,4′-pyrido[2,3-b][1,4,5]oxathiazepin]-2′(3′H)-yl)methyl)pyridin-2-yl)propanoic Acid] gave an EC50 [1] of 36.6 nM and a Kd [2] of under 1 nM.
Work on Cc1ccc([C@H](c2ccn3c(C(F)F)nnc3c2C)C(C)(C)C(=O)O)nc1CN1CC2(CCOCC2)Oc2nc(OCCN3CCCC3)c(C)cc2S1(=O)=O (single isomer, unassigned) [Example 643, (*R)-3-(3-(Difluoromethyl)-8-methyl-[1,2,4]triazolo[4,3-a]pyridin-7-yl)-2,2-dimethyl-3-(5-methyl-6-((8′-methyl-1′,1′-dioxido-7′-(2-(pyrrolidin-1-yl)ethoxy)-2,3,5,6-tetrahydrospiro[pyran-4,4′-pyrido[2,3-b][1,4,5]oxathiazepin]-2′(3′H)-yl)methyl)pyridin-2-yl)propanoic Acid] yielded an EC50 [1] of 9780 nM and a Kd [2] of 2420 nM.
Cc1ccc([C@@H](c2ccn3c(C(F)F)nnc3c2C)C(C)(C)C(=O)O)nc1CN1CC2(CCOCC2)Oc2nc(OCCN3CCCC3)c(C)cc2S1(=O)=O (single isomer, unassigned) [Example 644, (*S)-3-(3-(Difluoromethyl)-8-methyl-[1,2,4]triazolo[4,3-a]pyridin-7-yl)-2,2-dimethyl-3-(5-methyl-6-((8′-methyl-1′,1′-dioxido-7′-(2-(pyrrolidin-1-yl)ethoxy)-2,3,5,6-tetrahydrospiro[pyran-4,4′-pyrido[2,3-b][1,4,5]oxathiazepin]-2′(3′H)-yl)methyl)pyridin-2-yl)propanoic Acid] gave an EC50 [1] of 51.7 nM and a Kd [2] of under 1 nM.
